Measured values taken from PubChem BioAssay AID1259407 (Chemical Carcinogenesis Research Information System (CCRIS), 2018).
Calls of active or inactive are those of the source. How the calls were made is not given here.

Test system: CCRIS mutagenicity, Ames/micronucleus/aberration tests
Experiment: CCRIS mutagenicity studies
[1] = Test System: AMES SALMONELLA TYPHIMURIUM, Strain/Indicator: TA98, Metabolic Activation: NONE, Method: PREINCUBATION
[2] = Test System: AMES SALMONELLA TYPHIMURIUM, Strain/Indicator: TA100, Metabolic Activation: NONE, Method: PREINCUBATION
[3] = Test System: AMES SALMONELLA TYPHIMURIUM, Strain/Indicator: TA1535, Metabolic Activation: NONE, Method: STANDARD PLATE
[4] = Test System: AMES SALMONELLA TYPHIMURIUM, Strain/Indicator: TA1535, Metabolic Activation: RAT, LIVER, S-9, AROCLOR 1254, Method: STANDARD PLATE
[5] = Test System: AMES SALMONELLA TYPHIMURIUM, Strain/Indicator: TA1537, Metabolic Activation: NONE, Method: STANDARD PLATE
[6] = Test System: AMES SALMONELLA TYPHIMURIUM, Strain/Indicator: TA1537, Metabolic Activation: RAT, LIVER, S-9, AROCLOR 1254, Method: STANDARD PLATE
[7] = Test System: AMES SALMONELLA TYPHIMURIUM, Strain/Indicator: TA1538, Metabolic Activation: NONE, Method: STANDARD PLATE
[8] = Test System: AMES SALMONELLA TYPHIMURIUM, Strain/Indicator: TA98, Metabolic Activation: NONE, Method: STANDARD PLATE
[9] = Test System: AMES SALMONELLA TYPHIMURIUM, Strain/Indicator: TA98, Metabolic Activation: RAT, LIVER, S-9, AROCLOR 1254, Method: STANDARD PLATE
[10] = Test System: AMES SALMONELLA TYPHIMURIUM, Strain/Indicator: TA100, Metabolic Activation: NONE, Method: STANDARD PLATE
[11] = Test System: AMES SALMONELLA TYPHIMURIUM, Strain/Indicator: TA1535, Metabolic Activation: NONE, Method: PREINCUBATION
[12] = Test System: AMES SALMONELLA TYPHIMURIUM, Strain/Indicator: TA1537, Metabolic Activation: NONE, Method: PREINCUBATION

With `Cc1cc(/C=C/c2ccc3cc(N(C)C)ccc3[n+]2C)c(C)n1-c1ccccc1` the mutagenic call (Test System: AMES SALMONELLA TYPHIMURIUM, Strain/Indicator: TA98, Metabolic Activation: HUMAN, LIVER, S-9, Method: STANDARD PLATE) was “active; positive”, the mutagenic call [1] was “active; positive” and the mutagenic call (Test System: AMES SALMONELLA TYPHIMURIUM, Strain/Indicator: TA98, Metabolic Activation: RAT, LIVER, S-9, AROCLOR 1254, Method: PREINCUBATION) was “active; positive”. The mutagenic call (Test System: AMES SALMONELLA TYPHIMURIUM, Strain/Indicator: TA100, Metabolic Activation: HUMAN, LIVER, S-9, Method: STANDARD PLATE) was “active; positive”, the mutagenic call [2] was “active; positive” and the mutagenic call (Test System: AMES SALMONELLA TYPHIMURIUM, Strain/Indicator: TA100, Metabolic Activation: RAT, LIVER, S-9, AROCLOR 1254, Method: PREINCUBATION) was “active; positive”. For the same compound, the mutagenic call [3] was “inactive; negative”, the mutagenic call [4] was “inactive; negative” and the mutagenic call [5] was “inactive; negative”. For the same compound, the mutagenic call [6] was “inactive; negative”, the mutagenic call [7] was “inactive; negative” and the mutagenic call (Test System: AMES SALMONELLA TYPHIMURIUM, Strain/Indicator: UTH8413, Metabolic Activation: NONE, Method: PREINCUBATION) was “inactive; negative”. For the same compound, the mutagenic call (Test System: AMES SALMONELLA TYPHIMURIUM, Strain/Indicator: UTH8414, Metabolic Activation: NONE, Method: PREINCUBATION) was “active; positive” and the mutagenic call (Test System: AMES SALMONELLA TYPHIMURIUM, Strain/Indicator: UTH8414, Metabolic Activation: RAT, LIVER, S-9, AROCLOR 1254, Method: PREINCUBATION) was “active; positive”.

With `O=C(c1ccc([N+](=O)[O-])cc1)n1ncc(Cl)c(Cl)c1=O` the mutagenic call [8] was “inactive; negative”, the mutagenic call [9] was “inactive; negative” and the mutagenic call [10] was “active; positive”. The mutagenic call (Test System: AMES SALMONELLA TYPHIMURIUM, Strain/Indicator: TA100, Metabolic Activation: RAT, LIVER, S-9, AROCLOR 1254, Method: STANDARD PLATE) was “active; positive”, the mutagenic call [3] was “active; positive” and the mutagenic call [4] was “active; positive”. For the same compound, the mutagenic call [5] was “inactive; negative” and the mutagenic call [6] was “inactive; negative”.

In the case of `C[n+]1c2ccccc2cc2cc(N)ccc21`, the mutagenic call [11] is reported as “inactive; negative”, the mutagenic call (Test System: AMES SALMONELLA TYPHIMURIUM, Strain/Indicator: TA1535, Metabolic Activation: RAT, LIVER, S-9, TETRACHLOROBIPHENYL, Method: PREINCUBATION) is reported as “inactive; negative” and the mutagenic call [12] is reported as “active; positive”. The mutagenic call (Test System: AMES SALMONELLA TYPHIMURIUM, Strain/Indicator: TA1537, Metabolic Activation: RAT, LIVER, S-9, TETRACHLOROBIPHENYL, Method: PREINCUBATION) was “active; positive”, the mutagenic call (Test System: AMES SALMONELLA TYPHIMURIUM, Strain/Indicator: TA1538, Metabolic Activation: NONE, Method: PREINCUBATION) was “active; positive” and the mutagenic call (Test System: AMES SALMONELLA TYPHIMURIUM, Strain/Indicator: TA1538, Metabolic Activation: RAT, LIVER, S-9, TETRACHLOROBIPHENYL, Method: PREINCUBATION) was “active; positive”. The mutagenic call (Test System: AMES SALMONELLA TYPHIMURIUM, Strain/Indicator: TA1977, Metabolic Activation: NONE, Method: PREINCUBATION) was “active; positive”, the mutagenic call (Test System: AMES SALMONELLA TYPHIMURIUM, Strain/Indicator: TA1977, Metabolic Activation: RAT, LIVER, S-9, TETRACHLOROBIPHENYL, Method: PREINCUBATION) was “active; positive” and the mutagenic call (Test System: AMES SALMONELLA TYPHIMURIUM, Strain/Indicator: TA1978, Metabolic Activation: NONE, Method: PREINCUBATION) was “active; positive”. The mutagenic call (Test System: AMES SALMONELLA TYPHIMURIUM, Strain/Indicator: TA1978, Metabolic Activation: RAT, LIVER, S-9, TETRACHLOROBIPHENYL, Method: PREINCUBATION) was “active; positive”.

For `CCN(CCCl)CCCNc1c2ccc(Cl)cc2nc2ccc(OC)nc12`, the mutagenic call [8] was “active; positive”, the mutagenic call [10] was “active; positive” and the mutagenic call [3] was “inactive; negative”. For the same compound, the mutagenic call (Test System: AMES SALMONELLA TYPHIMURIUM, Strain/Indicator: TA1536, Metabolic Activation: NONE, Method: STANDARD PLATE) was “active; positive”, the mutagenic call [5] was “active; positive” and the mutagenic call [7] was “active; positive”.

With `Cn1c(N)nc2c3ccc(=O)[nH]c3ccc21` the mutagenic call [1] was “active; positive”, the mutagenic call [8] was “active; positive” and the mutagenic call (Test System: AMES SALMONELLA TYPHIMURIUM, Strain/Indicator: TA98, Metabolic Activation: RAT, LIVER, S-9, AROCLOR 1254 (0.5-3 MG/ML), Method: PREINCUBATION) was “active; positive”. The mutagenic call [9] was “active; positive”.

In the case of `Cc1ccc2cc3c(ccc4ccccc43)cc2c1`, the mutagenic call (Test System: AMES SALMONELLA TYPHIMURIUM, Strain/Indicator: TA100, Metabolic Activation: RAT, INTACT HEPATOCYTES, AROCLOR 1254, Method: PREINCUBATION) is reported as “active; positive”, the mutagenic call (Test System: AMES SALMONELLA TYPHIMURIUM, Strain/Indicator: TA100, Metabolic Activation: RAT, NADPH-FORTIFIED HOMOGENIZED HEPATOCYTES, AROCLOR 1254, Method: PREINCUBATION) is reported as “active; positive” and the mutagenic call (Test System: AMES SALMONELLA TYPHIMURIUM, Strain/Indicator: TA100, Metabolic Activation: RAT, SONICATED HEPATOCYTES, AROCLOR 1254, Method: PREINCUBATION) is reported as “active; positive”.

With `CCOP(=O)(OCC)OCC` the mutagenic call (Test System: AMES SALMONELLA TYPHIMURIUM, Strain/Indicator: TA98, Metabolic Activation: HAMSTER, LIVER, S-9, AROCLOR 1254 (10%), Method: PREINCUBATION) was “inactive; negative”, the mutagenic call [1] was “inactive; negative” and the mutagenic call (Test System: AMES SALMONELLA TYPHIMURIUM, Strain/Indicator: TA98, Metabolic Activation: RAT, LIVER, S-9, AROCLOR 1254 (10%), Method: PREINCUBATION) was “inactive; negative”. For the same compound, the mutagenic call (Test System: AMES SALMONELLA TYPHIMURIUM, Strain/Indicator: TA100, Metabolic Activation: HAMSTER, LIVER, S-9, AROCLOR 1254 (10%), Method: PREINCUBATION) was “inactive; negative”, the mutagenic call [2] was “inactive; negative” and the mutagenic call (Test System: AMES SALMONELLA TYPHIMURIUM, Strain/Indicator: TA100, Metabolic Activation: RAT, LIVER, S-9, AROCLOR 1254 (10%), Method: PREINCUBATION) was “inactive; negative”. The mutagenic call (Test System: AMES SALMONELLA TYPHIMURIUM, Strain/Indicator: TA102, Metabolic Activation: NONE, Method: STANDARD PLATE) was “inactive; negative”, the mutagenic call (Test System: AMES SALMONELLA TYPHIMURIUM, Strain/Indicator: TA1535, Metabolic Activation: HAMSTER, LIVER, S-9, AROCLOR 1254 (10%), Method: PREINCUBATION) was “inactive; negative” and the mutagenic call [11] was “inactive; negative”. The mutagenic call (Test System: AMES SALMONELLA TYPHIMURIUM, Strain/Indicator: TA1535, Metabolic Activation: RAT, LIVER, S-9, AROCLOR 1254 (10%), Method: PREINCUBATION) was “inactive; negative”, the mutagenic call (Test System: AMES SALMONELLA TYPHIMURIUM, Strain/Indicator: TA1537, Metabolic Activation: HAMSTER, LIVER, S-9, AROCLOR 1254 (10%), Method: PREINCUBATION) was “inactive; negative” and the mutagenic call [12] was “inactive; negative”. The mutagenic call (Test System: AMES SALMONELLA TYPHIMURIUM, Strain/Indicator: TA1537, Metabolic Activation: RAT, LIVER, S-9, AROCLOR 1254 (10%), Method: PREINCUBATION) was “inactive; negative”, the mutagenic call (Test System: AMES SALMONELLA TYPHIMURIUM, Strain/Indicator: TA2638, Metabolic Activation: NONE, Method: STANDARD PLATE) was “inactive; negative” and the mutagenic call (Test System: E. COLI, Strain/Indicator: WP2 (PKM101), Metabolic Activation: NONE, Method: STANDARD PLATE) was “inactive; negative”. The mutagenic call (Test System: E. COLI, Strain/Indicator: WP2 UVRA (PKM101), Metabolic Activation: NONE, Method: STANDARD PLATE) was “inactive; negative”.
